The values below come from paper PMC7733993, “Docking Characterization and in vitro Inhibitory Activity of Flavan-3-ols and Dimeric Proanthocyanidins Against the Main Protease Activity of SARS-Cov-2” (Frontiers in Plant Science, 2020).

“Also recorded” adds a separate entry of the source. Where two headings read alike, the source gives them in different places.

The assay has as its target 3CL Protease (M^pro) (SARS-CoV-2) (Severe acute respiratory syndrome coronavirus 2, UniProt P0DTD1). Kind of assay: biochemical. In kind it is biochemical. The conditions noted are these: for inhibitory activity against M^pro: concentration not given; for inhibition at 100 µM: read-out: M^pro activity inhibited compared with the negative control; for inhibitory effects on the activity of Mpro: eight concentrations (0-200 μM) tested, Figure S2; for inhibition of the M^pro activity: range of concentrations from 0 to 500 μM tested.

`O=C(OC1Cc2c(O)cc(O)cc2OC1c1cc(O)c(O)c(O)c1)c1cc(O)c(O)c(O)c1` (single isomer, unassigned; (-)) [EGCG, (–)-epigallocatechin-3-O-gallate]: the “inhibitory activity against M^pro” value is listed as “inhibited” and the inhibition at 100 µM was found to be 44.4%.

`Oc1cc(O)c2c(c1)O[C@H](c1ccc(O)c(O)c1)[C@@H](O)C2` [CA, (+)-catechin]: the “inhibitory activity against M^pro” value is listed as “did not have inhibitory activities; also recorded: No inhibitory activity was detected”, the “inhibitory effects on the activity of Mpro” value (“inhibitory effects” for short) is recorded as “No inhibitory effects” and the “inhibition of the M^pro activity” value is recorded as “did not detect”.

In the case of `O=C(O[C@@H]1Cc2c(O)cc(O)cc2O[C@H]1c1ccc(O)c(O)c1)c1cc(O)c(O)c(O)c1` [CAG, (+)-catechin-3-O-gallate], the “inhibitory activity against M^pro” value is given as “inhibited” and the inhibition at 100 µM was determined as 40%.

With `Oc1cc(O)c2c(c1)O[C@H](c1ccc(O)c(O)c1)[C@H](O)C2` [EC, (–)-epicatechin], the “inhibitory activity against M^pro” value is given as “did not have inhibitory activities; also recorded: No inhibitory activity was detected”, the “inhibitory effects” value is given as “No inhibitory effects” and the “inhibition of the M^pro activity” value is “did not detect”.

Broadly, the IC50 is the concentration that gives 50% inhibition. Read a high IC50 as weaker potency in that assay. In the case of `O=C(O[C@@H]1Cc2c(O)cc(O)cc2O[C@@H]1c1ccc(O)c(O)c1)c1cc(O)c(O)c(O)c1` [ECG, (–)-epicatechin-3-O-gallate], the concentration for half-maximal inhibition (IC50) was found to be 5.21 ± 0.5 µM, the “inhibitory activity against M^pro” value is on record as “inhibited” and the inhibition at 100 µM is 40%.

Consider `Oc1cc(O)c2c(c1)O[C@H](c1cc(O)c(O)c(O)c1)[C@H](O)C2` [EGC, (–)-epigallocatechin], for which the “inhibitory activity against M^pro” value was “did not have inhibitory activities; also recorded: No inhibitory activity was detected”, the “inhibitory effects” value is “No inhibitory effects” and the “inhibition of the M^pro activity” value is reported as “did not detect”.

With `Oc1cc(O)c2c(c1)O[C@@H](c1cc(O)c(O)c(O)c1)[C@H](O)C2` [GC, (+)-gallocatechin], the “inhibitory activity against M^pro” value is “did not have inhibitory activities; also recorded: No inhibitory activity was detected”, the “inhibitory effects” value is “No inhibitory effects” and the “inhibition of the M^pro activity” value is listed as “did not detect”.

In the case of `O=C(O[C@@H]1Cc2c(O)cc(O)cc2O[C@H]1c1cc(O)c(O)c(O)c1)c1cc(O)c(O)c(O)c1` [GCG, (–)-gallocatechin-3-O-gallate], the “inhibitory activity against M^pro” value is given as “inhibited” and the inhibition at 100 µM is 50%.

For the compound `Oc1cc(O)c2c(c1)O[C@@]1(c3ccc(O)c(O)c3)Oc3cc(O)c4c(c3[C@@H]2[C@H]1O)O[C@H](c1ccc(O)c(O)c1)[C@H](O)C4` [PA2, procyanidin A2], the “inhibitory activity against M^pro” value is “did not have inhibitory activities”, the “inhibitory effects” value is “No inhibitory effects” and the “inhibition of the M^pro activity” value is recorded as “did not detect”.

`Oc1cc(O)c2c(c1)O[C@H](c1ccc(O)c(O)c1)[C@H](O)[C@H]2c1c(O)cc(O)c2c1O[C@H](c1ccc(O)c(O)c1)[C@H](O)C2` [PB2, procyanidin B2]: 75.3 ± 1.29 µM corresponded to half-maximal inhibition (IC50) and the “inhibitory activity against M^pro” value was “inhibited”. Moreover, the inhibition at 100 µM (100 μM compound) was 81.5%.

As for `Oc1cc(O)c2c(c1)O[C@H](c1ccc(O)c(O)c1)[C@H](O)[C@H]2c1c(O)cc(O)c2c1O[C@H](c1ccc(O)c(O)c1)[C@@H](O)C2` [procyanidin B1], the “inhibitory activity against M^pro” value was “inhibited”.
